System: MV-4-11 cells
Assay: Gene expression microarray analysis (Affymetrix PrimeView) and GSEA
Type: cell-based, human
Set-up: RFU PODN (11730768_x_at) / Fold change /veh PODN (11730768_x_at) / RFU LINC00158 (11744669_a_at) / Fold change /veh LINC00158 (11744669_a_at) / RFU DUSP10 (11751237_a_at) / Fold change /veh DUSP10 (11751237_a_at) / RFU ID3 (11757404_x_at) / Fold change /veh ID3 (11757404_x_at) / RFU PLEKHG5 (11737974_s_at) / Fold change /veh PLEKHG5 (11737974_s_at) / RFU LRRC4B (11730491_at) / Fold change /veh LRRC4B (11730491_at) / RFU GIMAP4 (11747438_a_at) / Fold change /veh GIMAP4 (11747438_a_at) / RFU KRT8 (11758183_x_at) / Fold change /veh KRT8 (11758183_x_at) / RFU CNN1 (11734310_a_at) / Fold change /veh CNN1 (11734310_a_at) / RFU VPS37D (11726825_at) / Fold change /veh VPS37D (11726825_at) / RFU C10orf10 (11716522_x_at) / Fold change /veh C10orf10 (11716522_x_at) / RFU KIR2DL2 /// KIR2DL4 /// KIR2DL5A /// KIR2DL5B /// KIR2DS1 /// KIR2DS2 /// KIR2DS3 /// KIR2DS4 /// KIR3DL3 /// KIR3DL3 /// KIR3DS1 (11738374_at) / Fold change /veh KIR2DL2 /// KIR2DL4 /// KIR2DL5A /// KIR2DL5B /// KIR2DS1 /// KIR2DS2 /// KIR2DS3 /// KIR2DS4 /// KIR3DL3 /// KIR3DL3 /// KIR3DS1 (11738374_at) / RFU C1QL1 (11718748_at) / Fold change /veh C1QL1 (11718748_at) / RFU TMPRSS4 (11747572_a_at) / Fold change /veh TMPRSS4 (11747572_a_at) / RFU HAMP (11756126_x_at) / Fold change /veh HAMP (11756126_x_at) / RFU RNFT2 (11725882_a_at) / Fold change /veh RNFT2 (11725882_a_at) / RFU NR4A2 (11747474_a_at) / Fold change /veh NR4A2 (11747474_a_at) / RFU ABCC12 (11746883_a_at) / Fold change /veh ABCC12 (11746883_a_at) / RFU TMEM136 (11760407_x_at) / Fold change /veh TMEM136 (11760407_x_at) / RFU CLDN22 /// WWC2 (11732394_at) / Fold change /veh CLDN22 /// WWC2 (11732394_at) / RFU HLA-DPB1 (11760878_x_at) / Fold change /veh HLA-DPB1 (11760878_x_at) / RFU SPINT1 (11716480_a_at) / Fold change /veh SPINT1 (11716480_a_at) / RFU GAP43 (11754022_s_at) / Fold change /veh GAP43 (11754022_s_at) / RFU A4GNT (11735810_at) / Fold change /veh A4GNT (11735810_at) / RFU PRB3 (11715151_x_at) / Fold change /veh PRB3 (11715151_x_at) / RFU TUBB4B (11761932_at) / Fold change /veh TUBB4B (11761932_at) / RFU CAPN14 (11732068_a_at) / Fold change /veh CAPN14 (11732068_a_at) / RFU TMCC2 (11721928_a_at) / Fold change /veh TMCC2 (11721928_a_at) / RFU IRGQ (11745062_a_at) / Fold change /veh IRGQ (11745062_a_at) / RFU FAM174B (11720279_a_at) / Fold change /veh FAM174B (11720279_a_at) / RFU TMPRSS4 (11748680_a_at) / Fold change /veh TMPRSS4 (11748680_a_at) / RFU FAM212B (11763350_a_at) / Fold change /veh FAM212B (11763350_a_at) / RFU PLEKHG5 (11743358_a_at) / Fold change /veh PLEKHG5 (11743358_a_at) / RFU ZSCAN30 (11745921_a_at) / Fold change /veh ZSCAN30 (11745921_a_at) / RFU CMKLR1 (11741424_a_at) / Fold change /veh CMKLR1 (11741424_a_at) / RFU LOC101060620 /// MAPK8IP1 (11723275_at) / Fold change /veh LOC101060620 /// MAPK8IP1 (11723275_at) / RFU SPTSSB (11747773_x_at) / Fold change /veh SPTSSB (11747773_x_at) / RFU PRSS12 (11739890_at) / Fold change /veh PRSS12 (11739890_at) / RFU BIN1 (11741810_x_at) / Fold change /veh BIN1 (11741810_x_at) / RFU WNT11 (11732464_a_at) / Fold change /veh WNT11 (11732464_a_at) / RFU C10orf10 (11716521_a_at) / Fold change /veh C10orf10 (11716521_a_at) / RFU C5orf56 (11738089_at) / Fold change /veh C5orf56 (11738089_at) / RFU CYB561 (11721691_x_at) / Fold change /veh CYB561 (11721691_x_at) / RFU ANKRD19P (11752326_a_at) / Fold change /veh ANKRD19P (11752326_a_at) / RFU OR2T12 /// OR2T33 /// OR2T8 (11738714_s_at) / Fold change /veh OR2T12 /// OR2T33 /// OR2T8 (11738714_s_at) / RFU VCAN (11748164_a_at) / Fold change /veh VCAN (11748164_a_at) / RFU JSRP1 (11732532_at) / Fold change /veh JSRP1 (11732532_at) / RFU KRTAP10-11 (11738290_x_at) / Fold change /veh KRTAP10-11 (11738290_x_at) / RFU MYO3A (11730013_a_at) / Fold change /veh MYO3A (11730013_a_at) / RFU EBF3 (11725865_a_at) / Fold change /veh EBF3 (11725865_a_at) / RFU CAMK2N1 (11719241_x_at) / Fold change /veh CAMK2N1 (11719241_x_at) / RFU C5orf56 (11738088_a_at) / Fold change /veh C5orf56 (11738088_a_at) / RFU OLFML3 (11715873_a_at) / Fold change /veh OLFML3 (11715873_a_at) / RFU LOC100653217 /// NTM (11731650_a_at) / Fold change /veh LOC100653217 /// NTM (11731650_a_at) / RFU MAPK11 (11762145_a_at) / Fold change /veh MAPK11 (11762145_a_at) / RFU FIZ1 (11724087_x_at) / Fold change /veh FIZ1 (11724087_x_at) / RFU OASL (11726364_x_at) / Fold change /veh OASL (11726364_x_at) / RFU SOX15 (11748057_x_at) / Fold change /veh SOX15 (11748057_x_at) / RFU CD79A (11719716_a_at) / Fold change /veh CD79A (11719716_a_at) / RFU HIST1H1D (11736915_at) / Fold change /veh HIST1H1D (11736915_at) / RFU CASKIN2 (11723855_a_at) / Fold change /veh CASKIN2 (11723855_a_at) / RFU LOC730098 (11760151_x_at) / Fold change /veh LOC730098 (11760151_x_at) / RFU OR4N2 (11742367_at) / Fold change /veh OR4N2 (11742367_at) / RFU PRRT2 (11749266_a_at) / Fold change /veh PRRT2 (11749266_a_at) / RFU SNX32 (11753110_a_at) / Fold change /veh SNX32 (11753110_a_at) / RFU CDHR5 (11726645_a_at) / Fold change /veh CDHR5 (11726645_a_at) / RFU RCAN1 (11760418_a_at) / Fold change /veh RCAN1 (11760418_a_at) / RFU FAM167A (11723789_a_at) / Fold change /veh FAM167A (11723789_a_at) / RFU FAM26E (11764081_at) / Fold change /veh FAM26E (11764081_at) / RFU ISYNA1 (11749810_s_at) / Fold change /veh ISYNA1 (11749810_s_at) / RFU ACY1 (11761880_at) / Fold change /veh ACY1 (11761880_at) / RFU 11764098_at / Fold change /veh 11764098_at / RFU SAMD14 (11745864_x_at) / Fold change /veh SAMD14 (11745864_x_at) / RFU NPB (11741838_a_at) / Fold change /veh NPB (11741838_a_at) / RFU TMPRSS6 (11731388_a_at) / Fold change /veh TMPRSS6 (11731388_a_at) / RFU KRTAP10-2 (11738614_at) / Fold change /veh KRTAP10-2 (11738614_at) / RFU ARHGAP8 /// PRR5-ARHGAP8 (11727945_x_at) / Fold change /veh ARHGAP8 /// PRR5-ARHGAP8 (11727945_x_at) / RFU KRTAP5-7 /// NADSYN1 (11734609_at) / Fold change /veh KRTAP5-7 /// NADSYN1 (11734609_at) / RFU RASL12 (11751679_a_at) / Fold change /veh RASL12 (11751679_a_at) / RFU CDKN2B (11736163_a_at) / Fold change /veh CDKN2B (11736163_a_at) / RFU PRF1 (11729649_at) / Fold change /veh PRF1 (11729649_at) / RFU, ZNF638 /// ZNF638-IT1 / Fold change vs veh, ZNF638 /// ZNF638-IT1 / RFU, PANK3 / Fold change vs veh, PANK3 / RFU, SH3YL1 / Fold change vs veh, SH3YL1 / RFU, ZEB2 / Fold change vs veh, ZEB2 / RFU, NRIP1 / Fold change vs veh, NRIP1 / RFU, PTTG1IP / Fold change vs veh, PTTG1IP / RFU, CAPN2 / Fold change vs veh, CAPN2 / RFU, MED14 / Fold change vs veh, MED14 / RFU, SNORA58 / Fold change vs veh, SNORA58 / RFU, C1orf63 / Fold change vs veh, C1orf63 / RFU, LRRFIP1 / Fold change vs veh, LRRFIP1 / RFU, NDUFAF7 / Fold change vs veh, NDUFAF7 / RFU, SLC12A2 / Fold change vs veh, SLC12A2 / RFU, IBTK / Fold change vs veh, IBTK / RFU, ESF1 / Fold change vs veh, ESF1 / Fold change vs veh, TMEM50B / RFU, TAOK1 / Fold change vs veh, TAOK1 / RFU, ACBD3 / Fold change vs veh, ACBD3 / RFU, TMA16 / Fold change vs veh, TMA16 / RFU, RWDD3 / Fold change vs veh, RWDD3 / RFU, BCAT1 / Fold change vs veh, BCAT1 / RFU, EDEM3 / Fold change vs veh, EDEM3 / RFU, TMEM33 / Fold change vs veh, TMEM33 / RFU, WDR75 / Fold change vs veh, WDR75 / RFU, AHCTF1 / Fold change vs veh, AHCTF1 / RFU, TFRC / Fold change vs veh, TFRC / RFU, ZDHHC17 / Fold change vs veh, ZDHHC17 / RFU, NOM1 / Fold change vs veh, NOM1 / RFU, ARL8B / Fold change vs veh, ARL8B / RFU, ZBTB11 / Fold change vs veh, ZBTB11 / RFU, TAMM41 / Fold change vs veh, TAMM41 / RFU, KIAA1704 /// LOC100996395 / Fold change vs veh, KIAA1704 /// LOC100996395 / RFU, ING1 / Fold change vs veh, ING1 / RFU, TRMT61B / Fold change vs veh, TRMT61B / RFU, FUBP3 / Fold change vs veh, FUBP3 / RFU, TP53 / Fold change vs veh, TP53 / RFU, TNKS2 / Fold change vs veh, TNKS2 / RFU, ZFP14 / Fold change vs veh, ZFP14 / RFU, ACTR2 / Fold change vs veh, ACTR2 / RFU, PPP3R1 / Fold change vs veh, PPP3R1 / RFU, PIK3R1 / Fold change vs veh, PIK3R1 / RFU, HNRNPA1 / Fold change vs veh, HNRNPA1 / RFU, RNF170 / Fold change vs veh, RNF170 / RFU, ZNF28 / Fold change vs veh, ZNF28 / RFU, RNGTT / Fold change vs veh, RNGTT / RFU, OGT / Fold change vs veh, OGT / RFU, BRD1 / Fold change vs veh, BRD1 / RFU, MARS / Fold change vs veh, MARS / RFU, ZNF655 / Fold change vs veh, ZNF655 / RFU, FAHD1 / Fold change vs veh, FAHD1 / RFU, BDP1 / Fold change vs veh, BDP1 / RFU, LRRCC1 / Fold change vs veh, LRRCC1 / RFU, ARID1A / Fold change vs veh, ARID1A / RFU, ZNF146 / Fold change vs veh, ZNF146 / RFU, ZNF330 / Fold change vs veh, ZNF330 / RFU, GPN3 / Fold change vs veh, GPN3 / RFU, C9orf123 / Fold change vs veh, C9orf123 / RFU, N4BP2L2 / Fold change vs veh, N4BP2L2 / RFU, ARFIP1 / Fold change vs veh, ARFIP1 / RFU, FAM179B / Fold change vs veh, FAM179B / RFU, BCL10 / Fold change vs veh, BCL10 / RFU, UHRF1BP1L / Fold change vs veh, UHRF1BP1L / RFU, BET1 / Fold change vs veh, BET1 / RFU, CNOT2 / Fold change vs veh, CNOT2 / RFU, ZNF268 / Fold change vs veh, ZNF268 / Fold change vs veh, ZNF507 / RFU, DGCR2 / Fold change vs veh, DGCR2 / RFU, WDSUB1 / Fold change vs veh, WDSUB1 / Fold change vs veh, HSP90B1 /// MIR3652 / RFU, ADSS / Fold change vs veh, ADSS / RFU, GK / Fold change vs veh, GK / RFU, ZNF148 / Fold change vs veh, ZNF148 / RFU, TAF9 / Fold change vs veh, TAF9 / RFU, SLC1A5 / Fold change vs veh, SLC1A5 / RFU, SLMO2 / Fold change vs veh, SLMO2 / RFU, ABCC4 / Fold change vs veh, ABCC4 / RFU, LOC101060439 /// RAP1B / Fold change vs veh, LOC101060439 /// RAP1B / RFU, RFX7 / Fold change vs veh, RFX7 / RFU, GTPBP10 / Fold change vs veh, GTPBP10 / RFU, CNEP1R1 / Fold change vs veh, CNEP1R1 / RFU, BIVM-ERCC5 /// ERCC5 / Fold change vs veh, BIVM-ERCC5 /// ERCC5 / RFU, ILF3 / Fold change vs veh, ILF3 / RFU 11762660_at / Fold change /veh 11762660_at / RFU VCAN (11757783_s_at) / Fold change /veh VCAN (11757783_s_at) / RFU DDX43 (11728927_at) / Fold change /veh DDX43 (11728927_at) / RFU KRT8 (11758188_x_at) / Fold change /veh KRT8 (11758188_x_at) / RFU NKD1 (11759106_at) / Fold change /veh NKD1 (11759106_at) / RFU SRD5A1 (11742802_a_at) / Fold change /veh SRD5A1 (11742802_a_at) / RFU TPSAB1 /// TPSB2 (11721975_s_at) / Fold change /veh TPSAB1 /// TPSB2 (11721975_s_at) / RFU GSTM3 (11746129_a_at) / Fold change /veh GSTM3 (11746129_a_at) / RFU IL23R (11737362_x_at) / Fold change /veh IL23R (11737362_x_at) / RFU TMEM51 (11727254_a_at) / Fold change /veh TMEM51 (11727254_a_at) / RFU PIWIL2 (11732686_x_at) / Fold change /veh PIWIL2 (11732686_x_at) / RFU ORM1 (11744905_x_at) / Fold change /veh ORM1 (11744905_x_at) / RFU CCDC152 (11743942_at) / Fold change /veh CCDC152 (11743942_at) / RFU ECM1 (11717891_a_at) / Fold change /veh ECM1 (11717891_a_at) / RFU IL23R (11748794_a_at) / Fold change /veh IL23R (11748794_a_at) / RFU TNFAIP8L3 (11732012_x_at) / Fold change /veh TNFAIP8L3 (11732012_x_at) / RFU MBOAT4 (11741988_at) / Fold change /veh MBOAT4 (11741988_at) / RFU 11764193_at / Fold change /veh 11764193_at / RFU TMEM53 (11763286_at) / Fold change /veh TMEM53 (11763286_at) / RFU MAGEB2 (11727129_at) / Fold change /veh MAGEB2 (11727129_at) / RFU TMEM200A (11744735_a_at) / Fold change /veh TMEM200A (11744735_a_at) / RFU CCDC152 (11751479_a_at) / Fold change /veh CCDC152 (11751479_a_at) / RFU FAM211A (11726209_a_at) / Fold change /veh FAM211A (11726209_a_at) / RFU RGS16 (11746705_a_at) / Fold change /veh RGS16 (11746705_a_at) / RFU VCAN (11755009_s_at) / Fold change /veh VCAN (11755009_s_at) / RFU RHOB (11743442_s_at) / Fold change /veh RHOB (11743442_s_at) / RFU RGS16 (11720943_a_at) / Fold change /veh RGS16 (11720943_a_at) / RFU RGS16 (11720944_at) / Fold change /veh RGS16 (11720944_at) / RFU, VPS4B / Fold change vs veh, VPS4B / RFU, CREB1 / Fold change vs veh, CREB1 / RFU, DNAJC13 / Fold change vs veh, DNAJC13 / RFU, GNAQ / Fold change vs veh, GNAQ / RFU, CDK5R1 / Fold change vs veh, CDK5R1 / RFU, ZRANB3 / Fold change vs veh, ZRANB3 / RFU, CUL4A / Fold change vs veh, CUL4A / RFU, CCNY / Fold change vs veh, CCNY / RFU, UFL1 / Fold change vs veh, UFL1 / RFU, COG3 / Fold change vs veh, COG3 / RFU, DIAPH2 / Fold change vs veh, DIAPH2 / RFU, SKA2 / Fold change vs veh, SKA2 / RFU, AFF3 / Fold change vs veh, AFF3 / RFU, LMF1 / Fold change vs veh, LMF1 / RFU, IPO11 / Fold change vs veh, IPO11 / RFU, DFFB / Fold change vs veh, DFFB / RFU, FOXP1 / Fold change vs veh, FOXP1 / RFU, CARD8 / Fold change vs veh, CARD8 / RFU, STRN3 / Fold change vs veh, STRN3 / RFU, ADK / Fold change vs veh, ADK / RFU, RASSF2 / Fold change vs veh, RASSF2 / RFU, WIPF1 / Fold change vs veh, WIPF1 / RFU, LARP1B / Fold change vs veh, LARP1B / RFU, RASA1 / Fold change vs veh, RASA1 / RFU, RB1 / Fold change vs veh, RB1 / RFU, PPFIA1 / Fold change vs veh, PPFIA1 / RFU, MAT2A / Fold change vs veh, MAT2A / RFU, CCT5 / Fold change vs veh, CCT5 / RFU, WDR92 / Fold change vs veh, WDR92 / RFU, CUX1 / Fold change vs veh, CUX1 / RFU, TTC7A / Fold change vs veh, TTC7A / RFU, TMEM135 / Fold change vs veh, TMEM135 / RFU, DEPTOR / Fold change vs veh, DEPTOR / RFU, CPM / Fold change vs veh, CPM / RFU, DNAJB6 / Fold change vs veh, DNAJB6 / RFU, CACNA2D3 / Fold change vs veh, CACNA2D3 / RFU, DTX4 / Fold change vs veh, DTX4 / RFU, TFCP2 / Fold change vs veh, TFCP2 / RFU, GMCL1 /// GMCL1P1 / Fold change vs veh, GMCL1 /// GMCL1P1 / RFU, AEBP2 / Fold change vs veh, AEBP2 / RFU, SNHG1 /// SNORD22 /// SNORD25 /// SNORD26 /// SNORD27 /// SNORD28 /// SNORD29 /// SNORD31 / Fold change vs veh, SNHG1 /// SNORD22 /// SNORD25 /// SNORD26 /// SNORD27 /// SNORD28 /// SNORD29 /// SNORD31 / Fold change (Aza/veh), C12orf56 (ProbeSet 11735607_a_at) / Fold change (ACY-1035/veh), C12orf56 (ProbeSet 11735607_a_at) / Fold change (Aza/veh), FGFR1OP (ProbeSet 11751329_s_at) / Fold change (ACY-1035/veh), FGFR1OP (ProbeSet 11751329_s_at) / Fold change (Aza/veh), VPS36 (ProbeSet 11739960_a_at) / Fold change (ACY-1035/veh), VPS36 (ProbeSet 11739960_a_at) / RFU SYPL1 (11715823_x_at) / Fold change /veh SYPL1 (11715823_x_at) / RFU IGFBP7 (11715501_s_at) / Fold change /veh IGFBP7 (11715501_s_at) / RFU REEP3 (11722064_at) / Fold change /veh REEP3 (11722064_at) / RFU IGLL1 (11728026_x_at) / Fold change /veh IGLL1 (11728026_x_at): dose or concentration left out as unconfirmed
Conditions: MV-4-11 cells, 48 hours

Question: Which “Fold change /veh PRF1 (11729649_at)” value does the source give for `Nc1ncn([C@@H]2O[C@H](CO)[C@@H](O)[C@H]2O)c(=O)n1` [azacitidine] here?
Answer: The value was 1.08.
